# Laboratory results reported in publication PMC8222254, “Self-assembly of an anion receptor with metal-dependent kinase inhibition and potent in vitro anti-cancer properties” (Nature Communications, 2021).
# “And” between values parts separate entries of the source, which are not always exact repeats. Identical values can stand only once.
# Experiments:
# Assay in all cases: Kinase inhibition screen, cell-free 33P ATP assay at 10 μM
# Assay type in all cases: biochemical
# [1] = target: 140 purified human kinases (Homo sapiens, UniProt Q7KZI7)
# Chain of 140 purified human kinases (Homo sapiens, UniProt Q7KZI7) (Q7KZI7 whole entry): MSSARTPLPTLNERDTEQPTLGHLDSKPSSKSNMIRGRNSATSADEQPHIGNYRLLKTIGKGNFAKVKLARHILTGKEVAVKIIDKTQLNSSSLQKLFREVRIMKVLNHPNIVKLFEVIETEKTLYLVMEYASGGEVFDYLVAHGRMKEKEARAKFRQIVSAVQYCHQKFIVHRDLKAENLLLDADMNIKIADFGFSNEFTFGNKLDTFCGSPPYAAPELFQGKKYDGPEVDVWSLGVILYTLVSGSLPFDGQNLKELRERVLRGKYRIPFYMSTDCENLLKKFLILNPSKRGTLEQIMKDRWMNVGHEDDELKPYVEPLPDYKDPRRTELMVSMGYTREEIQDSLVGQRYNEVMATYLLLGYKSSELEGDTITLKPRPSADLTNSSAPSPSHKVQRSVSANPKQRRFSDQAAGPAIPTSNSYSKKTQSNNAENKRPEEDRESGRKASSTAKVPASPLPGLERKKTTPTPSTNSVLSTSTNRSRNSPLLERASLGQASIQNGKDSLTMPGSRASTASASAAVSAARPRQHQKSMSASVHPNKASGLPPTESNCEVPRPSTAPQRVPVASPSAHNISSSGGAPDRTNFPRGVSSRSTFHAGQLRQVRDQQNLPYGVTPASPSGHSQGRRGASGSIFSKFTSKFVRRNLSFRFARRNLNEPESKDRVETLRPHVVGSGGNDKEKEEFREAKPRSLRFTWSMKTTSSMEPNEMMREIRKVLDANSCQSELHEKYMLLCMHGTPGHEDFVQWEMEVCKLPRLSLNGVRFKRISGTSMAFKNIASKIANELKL
# Method in brief: (§1)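 Each complex tested in duplicate at 10 μM; cell-free radiometric assay using ^33P ATP on purified enzymes. Hits mapped by HGNC symbol onto the kinome tree.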
# [2] = target: 140 purified human kinases (Homo sapiens, UniProt Q13882); conditions: BRK
# Chain of 140 purified human kinases (Homo sapiens, UniProt Q13882) (Q13882 whole entry): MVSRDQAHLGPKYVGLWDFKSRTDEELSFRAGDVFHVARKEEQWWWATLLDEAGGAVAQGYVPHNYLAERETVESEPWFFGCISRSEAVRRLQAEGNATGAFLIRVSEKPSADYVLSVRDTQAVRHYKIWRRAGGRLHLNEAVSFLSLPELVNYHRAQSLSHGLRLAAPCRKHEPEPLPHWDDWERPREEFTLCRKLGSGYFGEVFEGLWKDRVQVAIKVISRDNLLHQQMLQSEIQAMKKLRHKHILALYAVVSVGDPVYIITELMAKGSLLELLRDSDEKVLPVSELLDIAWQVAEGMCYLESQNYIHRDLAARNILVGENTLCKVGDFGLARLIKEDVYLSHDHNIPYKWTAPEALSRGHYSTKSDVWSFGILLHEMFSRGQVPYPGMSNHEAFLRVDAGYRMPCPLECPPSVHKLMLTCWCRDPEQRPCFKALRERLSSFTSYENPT
# Method in brief: as §1
# [3] = target: T1, 140 purified human kinases (Homo sapiens, UniProt Q8IWQ3)
# T1 sequence (Q8IWQ3 1-736): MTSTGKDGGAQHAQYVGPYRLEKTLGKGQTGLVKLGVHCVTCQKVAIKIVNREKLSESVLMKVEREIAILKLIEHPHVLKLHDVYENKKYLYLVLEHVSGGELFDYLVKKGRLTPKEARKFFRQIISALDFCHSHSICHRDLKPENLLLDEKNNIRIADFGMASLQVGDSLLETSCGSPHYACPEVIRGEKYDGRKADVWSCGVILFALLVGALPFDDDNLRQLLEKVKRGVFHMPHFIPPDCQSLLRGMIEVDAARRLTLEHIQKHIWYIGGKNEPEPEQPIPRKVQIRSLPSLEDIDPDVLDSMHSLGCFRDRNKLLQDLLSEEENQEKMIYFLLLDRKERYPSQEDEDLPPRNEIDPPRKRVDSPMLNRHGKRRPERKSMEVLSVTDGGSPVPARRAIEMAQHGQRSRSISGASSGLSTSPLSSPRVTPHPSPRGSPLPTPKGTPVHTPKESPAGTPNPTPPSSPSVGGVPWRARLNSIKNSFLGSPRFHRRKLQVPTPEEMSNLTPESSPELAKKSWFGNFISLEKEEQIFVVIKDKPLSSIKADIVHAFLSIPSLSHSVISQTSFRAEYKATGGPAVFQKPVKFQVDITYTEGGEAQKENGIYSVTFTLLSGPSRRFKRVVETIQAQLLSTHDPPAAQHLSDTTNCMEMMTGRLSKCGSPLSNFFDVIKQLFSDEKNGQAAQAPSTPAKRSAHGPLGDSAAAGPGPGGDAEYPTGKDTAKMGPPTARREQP
# Method in brief: as §1
# [4] = target: 140 purified human kinases (Homo sapiens, UniProt O43353)
# Chain of 140 purified human kinases (Homo sapiens, UniProt O43353) (O43353 whole entry): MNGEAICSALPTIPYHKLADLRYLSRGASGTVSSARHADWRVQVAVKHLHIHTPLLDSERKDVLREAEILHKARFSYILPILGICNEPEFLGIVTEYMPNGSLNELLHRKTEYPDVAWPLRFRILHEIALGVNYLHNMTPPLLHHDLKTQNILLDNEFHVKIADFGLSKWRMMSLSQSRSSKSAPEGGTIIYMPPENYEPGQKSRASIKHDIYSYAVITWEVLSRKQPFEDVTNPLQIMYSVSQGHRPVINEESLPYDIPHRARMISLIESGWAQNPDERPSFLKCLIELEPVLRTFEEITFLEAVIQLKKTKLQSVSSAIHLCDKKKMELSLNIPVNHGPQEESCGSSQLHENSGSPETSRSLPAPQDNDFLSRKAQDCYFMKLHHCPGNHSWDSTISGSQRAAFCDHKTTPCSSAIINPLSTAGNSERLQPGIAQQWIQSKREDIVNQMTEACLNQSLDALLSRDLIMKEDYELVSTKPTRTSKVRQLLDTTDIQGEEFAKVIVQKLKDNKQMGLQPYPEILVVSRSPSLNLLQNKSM
# Method in brief: as §1
# [5] = target: 140 purified human kinases (Homo sapiens, UniProt P11362)
# Chain of 140 purified human kinases (Homo sapiens, UniProt P11362) (P11362 22-822): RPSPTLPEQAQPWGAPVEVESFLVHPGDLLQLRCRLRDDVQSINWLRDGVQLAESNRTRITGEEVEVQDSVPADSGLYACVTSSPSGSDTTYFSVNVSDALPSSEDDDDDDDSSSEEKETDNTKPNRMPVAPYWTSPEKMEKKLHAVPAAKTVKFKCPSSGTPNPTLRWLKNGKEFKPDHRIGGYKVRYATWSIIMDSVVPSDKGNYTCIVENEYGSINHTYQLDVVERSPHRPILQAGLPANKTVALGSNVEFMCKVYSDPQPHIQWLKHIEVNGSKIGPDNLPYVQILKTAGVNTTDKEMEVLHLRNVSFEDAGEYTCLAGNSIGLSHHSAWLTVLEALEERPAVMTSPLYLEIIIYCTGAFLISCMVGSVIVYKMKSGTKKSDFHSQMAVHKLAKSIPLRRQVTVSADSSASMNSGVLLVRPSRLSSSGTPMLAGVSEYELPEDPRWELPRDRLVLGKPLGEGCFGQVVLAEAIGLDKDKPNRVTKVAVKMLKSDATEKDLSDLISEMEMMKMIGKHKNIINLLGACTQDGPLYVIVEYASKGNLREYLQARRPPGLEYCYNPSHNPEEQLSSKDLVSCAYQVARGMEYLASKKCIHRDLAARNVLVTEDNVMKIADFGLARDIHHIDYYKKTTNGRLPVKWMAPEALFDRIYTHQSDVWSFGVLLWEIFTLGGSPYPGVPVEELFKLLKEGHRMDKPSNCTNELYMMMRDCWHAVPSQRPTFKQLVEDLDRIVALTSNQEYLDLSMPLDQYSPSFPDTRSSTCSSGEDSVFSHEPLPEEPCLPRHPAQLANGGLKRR
# Method in brief: as §1
# [6] = target: T2, 140 purified human kinases (Homo sapiens, UniProt P29323)
# T2 sequence (P29323 19-1055): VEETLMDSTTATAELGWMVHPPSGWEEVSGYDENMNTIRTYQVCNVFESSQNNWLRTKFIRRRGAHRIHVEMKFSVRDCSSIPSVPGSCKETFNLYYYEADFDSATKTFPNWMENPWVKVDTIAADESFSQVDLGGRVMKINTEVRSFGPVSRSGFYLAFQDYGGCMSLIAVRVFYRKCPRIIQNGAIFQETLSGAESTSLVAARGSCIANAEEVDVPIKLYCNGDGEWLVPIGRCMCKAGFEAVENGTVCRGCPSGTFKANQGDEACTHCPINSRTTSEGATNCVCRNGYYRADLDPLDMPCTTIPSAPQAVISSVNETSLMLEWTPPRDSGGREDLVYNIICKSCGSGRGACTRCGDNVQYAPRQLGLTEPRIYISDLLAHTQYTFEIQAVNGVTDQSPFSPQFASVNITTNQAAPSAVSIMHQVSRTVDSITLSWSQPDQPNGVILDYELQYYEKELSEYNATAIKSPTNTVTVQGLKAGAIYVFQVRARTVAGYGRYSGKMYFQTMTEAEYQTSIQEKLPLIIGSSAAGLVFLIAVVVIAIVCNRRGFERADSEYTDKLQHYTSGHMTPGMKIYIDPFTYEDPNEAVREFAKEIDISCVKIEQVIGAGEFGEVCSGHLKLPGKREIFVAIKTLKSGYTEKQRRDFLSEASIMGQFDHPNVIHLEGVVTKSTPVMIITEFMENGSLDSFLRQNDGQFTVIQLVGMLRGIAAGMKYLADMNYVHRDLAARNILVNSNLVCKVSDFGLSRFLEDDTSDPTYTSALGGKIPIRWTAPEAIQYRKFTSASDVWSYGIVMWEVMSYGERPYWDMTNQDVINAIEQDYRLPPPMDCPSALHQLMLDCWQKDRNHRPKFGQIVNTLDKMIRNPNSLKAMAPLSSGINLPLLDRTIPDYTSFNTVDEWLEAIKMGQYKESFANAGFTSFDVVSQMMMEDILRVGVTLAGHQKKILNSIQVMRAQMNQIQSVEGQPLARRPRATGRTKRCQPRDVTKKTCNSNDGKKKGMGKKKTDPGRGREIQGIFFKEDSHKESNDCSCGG
# Method in brief: as §1
# [7] = target: 140 purified human kinases (Homo sapiens, UniProt P04629); conditions: TrkA
# Chain of 140 purified human kinases (Homo sapiens, UniProt P04629) (P04629 33-796): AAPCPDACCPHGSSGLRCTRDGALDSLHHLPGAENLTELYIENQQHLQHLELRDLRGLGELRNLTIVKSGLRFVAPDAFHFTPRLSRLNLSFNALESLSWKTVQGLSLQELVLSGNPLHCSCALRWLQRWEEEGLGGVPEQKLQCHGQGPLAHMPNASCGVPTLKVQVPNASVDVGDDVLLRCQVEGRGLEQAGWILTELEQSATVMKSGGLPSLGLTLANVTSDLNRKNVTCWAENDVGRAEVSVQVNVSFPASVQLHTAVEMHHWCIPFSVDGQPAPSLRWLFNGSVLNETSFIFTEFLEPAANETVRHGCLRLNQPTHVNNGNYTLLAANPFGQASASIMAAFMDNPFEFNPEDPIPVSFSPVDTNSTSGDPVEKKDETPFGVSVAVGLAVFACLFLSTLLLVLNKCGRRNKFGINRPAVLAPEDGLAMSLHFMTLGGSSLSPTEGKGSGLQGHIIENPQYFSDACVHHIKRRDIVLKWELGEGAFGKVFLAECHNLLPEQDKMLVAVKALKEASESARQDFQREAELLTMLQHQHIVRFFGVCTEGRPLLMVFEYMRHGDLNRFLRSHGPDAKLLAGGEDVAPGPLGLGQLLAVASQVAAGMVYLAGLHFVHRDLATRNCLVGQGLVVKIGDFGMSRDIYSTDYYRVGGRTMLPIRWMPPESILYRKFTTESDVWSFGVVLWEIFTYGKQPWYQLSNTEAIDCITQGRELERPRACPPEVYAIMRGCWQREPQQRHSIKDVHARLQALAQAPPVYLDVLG
# Method in brief: as §1
# [8] = target: 140 purified human kinases (Homo sapiens, UniProt Q13627); conditions: DYRK1A
# Method in brief: as §1
compound,measurement,setting,value
[Cu+2].[Cu+2].[Cu+2].c1ccc(-c2csc(NCCN(CCNc3nc(-c4ccccn4)cs3)CCNc3nc(-c4ccccn4)cs3)n2)nc1.c1ccc(-c2csc(NCCN(CCNc3nc(-c4ccccn4)cs3)CCNc3nc(-c4ccccn4)cs3)n2)nc1 [[L2Cu3]6+],% Inhibition Run 1,[1]; MARK2,29.8%
same,% Inhibition Run 2,[1]; MARK2,21.6%
same,"% Inhibition, Mean",[1]; MARK2,26%
same,mean % activity,[1]; MARK2,74%
same,% activity,"[1]; MARK2, Run 1",70.2%
same,% activity,"[1]; MARK2, Run 2",78.4%
same,% Inhibition Run 1,[2],67.9%
same,% Inhibition Run 2,[2],57.6%
same,"% Inhibition, Mean",[2],63%
same,mean % activity,[2],37%
same,% activity,[2]; Run 1,32.1%
same,% activity,[2]; Run 2,42.4%
same,% Inhibition Run 1,[3]; BRSK2,77.8%
same,% Inhibition Run 2,[3]; BRSK2,75.3%
same,"% Inhibition, Mean",[3]; BRSK2,77%
same,mean % activity,[3]; BRSK2,23%
same,% activity,"[3]; BRSK2, Run 1",22.2%
same,% activity,"[3]; BRSK2, Run 2",24.7%
same,% Inhibition Run 1,[4]; RIPK2,16.3%
same,% Inhibition Run 2,[4]; RIPK2,2.5%
same,"% Inhibition, Mean",[4]; RIPK2,9%
same,mean % activity,[4]; RIPK2,91%
same,% activity,"[4]; RIPK2, Run 1",83.7%
same,% activity,"[4]; RIPK2, Run 2",97.5%
same,% Inhibition Run 1,[5]; FGF-R1,63.7%
same,% Inhibition Run 2,[5]; FGF-R1,61.4%
same,"% Inhibition, Mean",[5]; FGF-R1,63%
same,mean % activity,[5]; FGF-R1,37%
same,% activity,"[5]; FGF-R1, Run 1",36.3%
same,% activity,"[5]; FGF-R1, Run 2",38.6%
same,% Inhibition Run 1,[6]; EPH-B2,57.3%
same,% Inhibition Run 2,[6]; EPH-B2,57.8%
same,"% Inhibition, Mean",[6]; EPH-B2,58%
same,mean % activity,[6]; EPH-B2,42%
same,% activity,"[6]; EPH-B2, Run 1",42.7%
same,% activity,"[6]; EPH-B2, Run 2",42.2%
same,% Inhibition Run 1,[7],78.1%
same,% Inhibition Run 2,[7],61.2%
same,"% Inhibition, Mean",[7],70%
same,mean % activity,[7],30%
same,% activity,[7]; Run 1,21.9%
same,% activity,[7]; Run 2,38.8%
same,% Inhibition Run 1,[8],18.5%
same,% Inhibition Run 2,[8],12.4%
same,"% Inhibition, Mean",[8],15%
same,mean % activity,[8],85%
same,% activity,[8]; Run 1,81.5%
same,% activity,[8]; Run 2,87.6%
CC(=O)[O-].CC(=O)[O-].CC(=O)[O-].CC(=O)[O-].CC(=O)[O-].CC(=O)[O-].[Zn+2].[Zn+2].[Zn+2].c1ccc(-c2csc(NCCN(CCNc3nc(-c4ccccn4)cs3)CCNc3nc(-c4ccccn4)cs3)n2)nc1.c1ccc(-c2csc(NCCN(CCNc3nc(-c4ccccn4)cs3)CCNc3nc(-c4ccccn4)cs3)n2)nc1 [[L2Zn3]6+],"% Inhibition, Mean",[1]; MARK2,34%
same,"% Inhibition, Run 1 / Run 2",[1]; MARK2,45% and 24%
same,mean % activity,[1]; MARK2,66%
same,% activity,"[1]; MARK2, duplicate runs",56% and 76%
same,"% Inhibition, Mean",[2],76%
same,"% Inhibition, Run 1 / Run 2",[2],83% and 69%
same,mean % activity,[2],24%
same,% activity,[2]; duplicate runs,17% and 31%
same,"% Inhibition, Mean",[3]; BRSK2,37%
same,"% Inhibition, Run 1 / Run 2",[3]; BRSK2,44% and 30%
same,mean % activity,[3]; BRSK2,63%
same,% activity,"[3]; BRSK2, duplicate runs",56% and 70%
same,"% Inhibition, Mean",[4]; RIPK2,5.55%
same,"% Inhibition, Run 1 / Run 2",[4]; RIPK2,8% and 3%
same,mean % activity,[4]; RIPK2,94%
same,% activity,"[4]; RIPK2, duplicate runs",92% and 97%
same,"% Inhibition, Mean",[5]; FGF-R1,82%
same,"% Inhibition, Run 1 / Run 2",[5]; FGF-R1,88% and 76%
same,mean % activity,[5]; FGF-R1,18%
same,% Activity inhibition Mean,"[5]; FGF-R1, 10 µM",81.5%
same,% Activity inhibition Run 1,"[5]; FGF-R1, 10 µM",87%
same,% Activity inhibition Run 2,"[5]; FGF-R1, 10 µM",76%
same,% Activity remaining Run 1,"[5]; FGF-R1, 10 µM",13%
same,% Activity remaining Run 2,"[5]; FGF-R1, 10 µM",24%
same,% activity,"[5]; FGF-R1, duplicate runs",13% and 24%
same,"% Inhibition, Mean",[6]; EPH-B2,88%
same,"% Inhibition, Run 1 / Run 2",[6]; EPH-B2,89% and 87%
same,mean % activity,[6]; EPH-B2,12%
same,% Activity inhibition Mean,"[6]; EPH-B2, 10 µM",88.0%
same,% Activity inhibition Run 1,"[6]; EPH-B2, 10 µM",89%
same,% Activity inhibition Run 2,"[6]; EPH-B2, 10 µM",87%
same,% Activity remaining Run 1,"[6]; EPH-B2, 10 µM",11%
same,% Activity remaining Run 2,"[6]; EPH-B2, 10 µM",13%
same,% activity,"[6]; EPH-B2, duplicate runs",11% and 13%
same,"% Inhibition, Mean",[7],87%
same,"% Inhibition, Run 1 / Run 2",[7],88% and 86%
same,mean % activity,[7],13%
same,% Activity inhibition Mean,[7]; 10 µM,86.5%
same,% Activity inhibition Run 1,[7]; 10 µM,88%
same,% Activity inhibition Run 2,[7]; 10 µM,85%
same,% Activity remaining Run 1,[7]; 10 µM,12%
same,% Activity remaining Run 2,[7]; 10 µM,15%
same,% activity,[7]; duplicate runs,12% and 15%
same,"% Inhibition, Mean",[8],28%
same,"% Inhibition, Run 1 / Run 2",[8],34% and 22%
same,mean % activity,[8],72%
same,% activity,[8]; duplicate runs,67% and 78%
